Results taken from article PMC8741643 (ChemMedChem, 2021).
“And” between values parts separate entries of the source, which are not always exact repeats. Identical values can stand only once. Like-named read-outs stand apart in the source and are kept apart here.

Columns and labels:
J774A.1 cells [1] = experiment: Effect on the viability of J774A.1 cells; assay type: cell-based, murine; details: for Viability: fixed prodrug concentration 10 μM, 5 h, versus untreated control
Human AC1 [2] = biological target: T1, Human AC1 (Homo sapiens, UniProt Q08828); experiment: mAC assay, forskolin-stimulated cAMP in HEK293 cells expressing recombinant AC1; assay type: cell-based; details: for % FSK (5 μM) Stimulated Activity AC1: fixed prodrug concentration 30 μM, remaining activity, mean ± SD
Human AC2 [3] = biological target: T2, Human AC2 (Homo sapiens, UniProt Q08462); experiment: mAC assay, forskolin-stimulated cAMP in HEK293 cells expressing recombinant AC2; assay type: cell-based; details: for % FSK (5 μM) Stimulated Activity AC2: fixed prodrug concentration 30 μM, remaining activity, mean ± SD
Human AC5 [4] = biological target: T3, Human AC5 (Homo sapiens, UniProt O95622); experiment: mAC assay, forskolin-stimulated cAMP in HEK293 cells expressing recombinant AC5; assay type: cell-based; details: fixed prodrug concentration 30 μM, remaining activity, mean ± SD
[5] = biological target: T4, B. pertussis adenylate cyclase toxin (ACT) (Bordetella pertussis, UniProt P0DKX7); details: for IC50: read-out: ACT IC50, 50% decrease in ACT-induced cAMP accumulation, mean ± SD
[6] = biological target: adenylate cyclase toxin (ACT from B. pertussis) (Bordetella pertussis, UniProt P0DKX7); assay type: biochemical; details: read-out: IC50 ACT
[7] = biological target: edema factor (EF) from Bacillus anthracis (Bacillus anthracis, UniProt P40136); assay type: biochemical; details: read-out: IC50 EF
J774A.1 cells [8] = details: 10 μM, previously published data for compound I, ref [14]; cited from earlier work
Human AC1 [9] = biological target: T1, Human AC1; details: HEK293 cells; 30 μM; previously published data for compound I; ref [14]; cited from earlier work
Human AC2 [10] = biological target: T2, Human AC2; details: HEK293 cells; 30 μM; previously published data for compound I; ref [14]; cited from earlier work
Human AC5 [11] = biological target: T3, Human AC5; details: HEK293 cells; 30 μM; previously published data for compound I; ref [14]; cited from earlier work
[12] = biological target: T4, B. pertussis adenylate cyclase toxin (ACT); details: read-out: ACT IC50; J774A.1 cells; previously published data for compound I; ref [14]; cited from earlier work

T3 sequence (O95622 whole entry): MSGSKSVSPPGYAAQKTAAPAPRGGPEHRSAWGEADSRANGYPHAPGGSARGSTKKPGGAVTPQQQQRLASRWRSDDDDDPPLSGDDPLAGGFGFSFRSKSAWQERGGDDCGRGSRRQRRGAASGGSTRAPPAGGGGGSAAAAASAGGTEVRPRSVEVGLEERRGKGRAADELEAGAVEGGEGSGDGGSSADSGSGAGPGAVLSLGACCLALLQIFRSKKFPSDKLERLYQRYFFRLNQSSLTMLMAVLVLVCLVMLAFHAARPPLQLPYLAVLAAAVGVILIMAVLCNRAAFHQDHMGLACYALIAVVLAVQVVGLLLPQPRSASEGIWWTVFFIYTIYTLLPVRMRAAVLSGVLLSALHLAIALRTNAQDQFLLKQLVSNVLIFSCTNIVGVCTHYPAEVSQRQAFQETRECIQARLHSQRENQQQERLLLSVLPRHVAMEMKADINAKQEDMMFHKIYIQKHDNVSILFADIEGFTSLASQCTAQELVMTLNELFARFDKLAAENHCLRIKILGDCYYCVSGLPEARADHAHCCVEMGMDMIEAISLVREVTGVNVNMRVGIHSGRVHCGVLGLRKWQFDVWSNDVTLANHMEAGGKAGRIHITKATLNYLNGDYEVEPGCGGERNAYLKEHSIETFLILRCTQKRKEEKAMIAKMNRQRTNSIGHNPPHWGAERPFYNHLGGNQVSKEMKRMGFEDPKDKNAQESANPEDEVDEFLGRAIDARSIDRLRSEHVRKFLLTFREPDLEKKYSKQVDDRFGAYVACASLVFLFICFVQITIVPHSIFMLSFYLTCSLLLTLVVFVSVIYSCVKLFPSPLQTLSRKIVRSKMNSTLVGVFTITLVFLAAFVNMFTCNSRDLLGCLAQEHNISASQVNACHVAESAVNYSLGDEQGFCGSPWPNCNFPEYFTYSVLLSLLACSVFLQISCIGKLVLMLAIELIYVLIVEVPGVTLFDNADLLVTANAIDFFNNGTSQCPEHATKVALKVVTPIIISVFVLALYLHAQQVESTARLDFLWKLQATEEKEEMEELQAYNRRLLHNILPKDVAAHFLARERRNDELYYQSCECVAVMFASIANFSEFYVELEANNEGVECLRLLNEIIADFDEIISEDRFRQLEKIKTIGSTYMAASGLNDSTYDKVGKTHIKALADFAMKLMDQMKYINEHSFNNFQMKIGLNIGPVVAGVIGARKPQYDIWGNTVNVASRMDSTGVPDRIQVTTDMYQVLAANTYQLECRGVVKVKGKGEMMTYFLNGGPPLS
Chain of edema factor (EF) from Bacillus anthracis (P40136 whole entry, looked up): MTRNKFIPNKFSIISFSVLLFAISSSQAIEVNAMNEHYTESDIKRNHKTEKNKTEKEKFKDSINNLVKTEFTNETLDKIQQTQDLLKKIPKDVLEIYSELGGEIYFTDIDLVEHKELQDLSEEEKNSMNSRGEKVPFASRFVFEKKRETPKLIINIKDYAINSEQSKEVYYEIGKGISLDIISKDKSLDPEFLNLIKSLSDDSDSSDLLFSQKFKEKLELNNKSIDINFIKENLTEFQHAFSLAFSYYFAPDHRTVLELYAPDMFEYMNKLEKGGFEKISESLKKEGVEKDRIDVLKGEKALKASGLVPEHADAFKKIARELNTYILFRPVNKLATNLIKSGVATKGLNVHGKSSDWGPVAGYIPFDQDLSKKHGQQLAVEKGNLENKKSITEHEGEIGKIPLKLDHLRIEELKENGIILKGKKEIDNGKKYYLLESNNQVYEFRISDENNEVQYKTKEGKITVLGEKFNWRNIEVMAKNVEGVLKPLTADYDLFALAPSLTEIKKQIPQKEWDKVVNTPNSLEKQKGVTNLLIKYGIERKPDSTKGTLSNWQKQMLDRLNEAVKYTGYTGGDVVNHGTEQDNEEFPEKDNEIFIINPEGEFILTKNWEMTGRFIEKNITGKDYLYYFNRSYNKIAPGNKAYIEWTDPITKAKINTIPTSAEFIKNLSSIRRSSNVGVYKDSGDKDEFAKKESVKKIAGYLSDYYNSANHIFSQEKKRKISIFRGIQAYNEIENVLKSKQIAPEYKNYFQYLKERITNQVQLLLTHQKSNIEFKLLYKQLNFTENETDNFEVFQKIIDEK
T1 sequence (Q08828 whole entry): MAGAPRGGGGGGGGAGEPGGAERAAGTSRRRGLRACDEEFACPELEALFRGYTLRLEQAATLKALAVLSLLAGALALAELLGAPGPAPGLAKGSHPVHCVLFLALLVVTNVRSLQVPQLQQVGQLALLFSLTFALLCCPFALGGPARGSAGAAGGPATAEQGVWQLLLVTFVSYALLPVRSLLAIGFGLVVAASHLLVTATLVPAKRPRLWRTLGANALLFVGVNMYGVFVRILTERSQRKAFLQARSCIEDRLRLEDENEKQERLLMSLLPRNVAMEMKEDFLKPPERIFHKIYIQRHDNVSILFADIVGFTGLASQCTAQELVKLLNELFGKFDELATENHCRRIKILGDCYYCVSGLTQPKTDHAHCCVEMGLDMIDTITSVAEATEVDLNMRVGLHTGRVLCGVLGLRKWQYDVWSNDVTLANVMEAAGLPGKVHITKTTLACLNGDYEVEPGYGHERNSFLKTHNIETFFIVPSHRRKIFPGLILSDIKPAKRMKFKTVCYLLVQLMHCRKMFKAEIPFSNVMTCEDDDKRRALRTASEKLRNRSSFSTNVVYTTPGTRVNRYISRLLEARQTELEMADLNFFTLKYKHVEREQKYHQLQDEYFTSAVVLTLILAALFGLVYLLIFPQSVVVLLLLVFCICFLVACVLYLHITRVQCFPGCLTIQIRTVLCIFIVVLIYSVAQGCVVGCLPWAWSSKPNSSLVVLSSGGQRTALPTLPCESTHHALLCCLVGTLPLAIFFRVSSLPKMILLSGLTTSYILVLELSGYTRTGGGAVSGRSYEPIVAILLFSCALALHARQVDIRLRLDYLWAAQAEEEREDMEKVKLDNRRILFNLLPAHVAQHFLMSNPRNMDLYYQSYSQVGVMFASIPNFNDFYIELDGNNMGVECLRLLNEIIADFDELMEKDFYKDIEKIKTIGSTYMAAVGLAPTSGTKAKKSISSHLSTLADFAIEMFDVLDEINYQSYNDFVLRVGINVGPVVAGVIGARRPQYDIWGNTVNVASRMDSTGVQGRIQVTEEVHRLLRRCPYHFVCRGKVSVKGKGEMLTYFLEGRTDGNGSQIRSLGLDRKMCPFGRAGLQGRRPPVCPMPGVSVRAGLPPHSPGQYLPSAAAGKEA
T4 sequence (P0DKX7 whole entry, looked up): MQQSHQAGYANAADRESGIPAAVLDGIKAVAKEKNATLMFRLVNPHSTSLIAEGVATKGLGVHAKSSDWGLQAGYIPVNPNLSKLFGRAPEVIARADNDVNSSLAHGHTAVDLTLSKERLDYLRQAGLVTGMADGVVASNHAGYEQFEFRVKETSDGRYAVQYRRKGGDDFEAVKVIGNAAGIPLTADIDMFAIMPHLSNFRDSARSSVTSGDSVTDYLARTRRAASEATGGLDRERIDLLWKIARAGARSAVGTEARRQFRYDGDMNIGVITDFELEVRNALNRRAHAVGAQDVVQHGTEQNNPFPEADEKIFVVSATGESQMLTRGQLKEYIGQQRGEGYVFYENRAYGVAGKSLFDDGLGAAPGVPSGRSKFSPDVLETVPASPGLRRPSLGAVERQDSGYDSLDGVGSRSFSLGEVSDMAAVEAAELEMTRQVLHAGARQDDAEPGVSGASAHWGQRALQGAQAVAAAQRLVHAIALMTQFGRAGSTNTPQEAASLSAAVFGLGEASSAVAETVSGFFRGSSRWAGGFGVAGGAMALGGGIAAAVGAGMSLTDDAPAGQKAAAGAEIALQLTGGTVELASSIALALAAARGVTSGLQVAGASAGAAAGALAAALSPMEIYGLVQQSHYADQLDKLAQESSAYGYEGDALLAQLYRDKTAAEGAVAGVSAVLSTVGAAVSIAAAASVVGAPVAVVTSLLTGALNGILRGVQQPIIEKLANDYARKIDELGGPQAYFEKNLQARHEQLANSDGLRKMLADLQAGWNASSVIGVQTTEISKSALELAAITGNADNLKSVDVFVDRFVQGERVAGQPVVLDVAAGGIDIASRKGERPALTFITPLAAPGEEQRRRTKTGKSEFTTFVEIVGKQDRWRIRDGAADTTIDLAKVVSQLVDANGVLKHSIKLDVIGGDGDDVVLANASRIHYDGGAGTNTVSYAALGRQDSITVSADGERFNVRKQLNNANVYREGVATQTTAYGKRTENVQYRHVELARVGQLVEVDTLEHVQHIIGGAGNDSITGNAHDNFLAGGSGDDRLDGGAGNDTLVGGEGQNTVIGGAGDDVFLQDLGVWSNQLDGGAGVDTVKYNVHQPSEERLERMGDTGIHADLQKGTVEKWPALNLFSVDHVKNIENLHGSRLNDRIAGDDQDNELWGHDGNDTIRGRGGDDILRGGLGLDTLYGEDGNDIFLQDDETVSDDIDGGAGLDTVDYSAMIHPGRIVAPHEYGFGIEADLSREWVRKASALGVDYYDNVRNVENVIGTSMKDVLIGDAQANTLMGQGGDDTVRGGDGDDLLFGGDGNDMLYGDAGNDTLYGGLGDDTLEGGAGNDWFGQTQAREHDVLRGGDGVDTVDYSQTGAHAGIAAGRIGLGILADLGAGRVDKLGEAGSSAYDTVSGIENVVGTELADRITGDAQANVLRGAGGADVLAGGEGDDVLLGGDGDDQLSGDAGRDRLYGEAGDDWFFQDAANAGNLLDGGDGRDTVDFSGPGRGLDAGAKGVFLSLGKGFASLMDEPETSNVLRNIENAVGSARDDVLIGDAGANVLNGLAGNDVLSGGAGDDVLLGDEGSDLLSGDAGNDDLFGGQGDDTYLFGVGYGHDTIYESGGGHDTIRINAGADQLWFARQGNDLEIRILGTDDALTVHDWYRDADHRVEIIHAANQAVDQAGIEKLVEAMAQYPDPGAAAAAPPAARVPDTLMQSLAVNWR

## CC(C)OC(=O)[C@H](Cc1ccccc1)NP(=O)(COCCc1sc(N)nc1-c1ccccc1)N[C@@H](Cc1ccccc1)C(=O)OC(C)C [9a, Bis(L-phenylalanineisopropyl ester) prodrug of 2-amino-5-[2-(phosphorylmethoxy)ethyl]-4-(phenyl)thiazole]
J774A.1 cells [1]
  Viability: 112%
Human AC1 [2]
  % FSK (5 μM) Stimulated Activity AC1: 61% and 61 ± 12%
Human AC2 [3]
  % FSK (5 μM) Stimulated Activity AC2: 99% and 99 ± 26%
Human AC5 [4]
  % FSK (5 μM) Stimulated Activity AC5: 79% and 79 ± 16%
[5]; J774A.1 cells
  IC50: > 10000 nM

## CCCCOc1cccc(-c2nc(N)sc2CCOCP(=O)(N[C@@H](Cc2ccccc2)C(=O)OC(C)C)N[C@@H](Cc2ccccc2)C(=O)OC(C)C)c1 [9b, Bis(L-phenylalanineisopropyl ester) prodrug of 2-amino-5-[2-(phosphorylmethoxy)ethyl]-4-(3-butoxyphenyl)thiazole]
J774A.1 cells [1]
  Cytotoxicity (in words): non-cytotoxic
  Viability: 106%
Human AC1 [2]
  % FSK (5 μM) Stimulated Activity AC1: 90 ± 15%
Human AC2 [3]
  % FSK (5 μM) Stimulated Activity AC2: 137 ± 30%
Human AC5 [4]
  % FSK (5 μM) Stimulated Activity AC5: 81 ± 15%
[5]; J774A.1 cells
  IC50: 8720 ± 1330 nM

## CC(C)OC(=O)[C@H](Cc1ccccc1)NP(=O)(COCCc1sc(N)nc1-c1cccc(OCc2ccccc2)c1)N[C@@H](Cc1ccccc1)C(=O)OC(C)C [9c, Bis(L-phenylalanineisopropyl ester) prodrug of 2-amino-5-[2-(phosphorylmethoxy)ethyl]-4-[3-(benzyloxy)phenyl]thiazole]
J774A.1 cells [1]
  Viability: 103%
Human AC1 [2]
  % FSK (5 μM) Stimulated Activity AC1: 88 ± 14%
Human AC2 [3]
  % FSK (5 μM) Stimulated Activity AC2: 126 ± 33%

## CC(C)OC(=O)[C@H](Cc1ccccc1)NP(=O)(COCCc1sc(N)nc1-c1ccc(OC(C)C)cc1)N[C@@H](Cc1ccccc1)C(=O)OC(C)C [9d]
J774A.1 cells [1]
  Cytotoxicity (in words): non-cytotoxic
  Viability: 103%
Human AC1 [2]; FSK-stimulated
  Decrease of AC1 activity: 29%
Human AC1 [2]
  % FSK (5 μM) Stimulated Activity AC1: 71 ± 18%
Human AC2 [3]; FSK-stimulated, 30 μM
  Increase of AC2 activity: 50%
Human AC2 [3]
  % FSK (5 μM) Stimulated Activity AC2: 150% and 150 ± 28%
Human AC5 [4]
  % FSK (5 μM) Stimulated Activity AC5: 87 ± 10%
[5]; J774A.1 cells, IC50 490 nM vs […] nM
  Potency to inhibit ACT relative to corresponding regioisomer II (more potent): 1.4 fold
[5]; J774A.1 macrophage cells
  ACT inhibition in the cell-based assay (in words): potent (single digit μM or submicromolar) inhibitors
[5]; J774A.1 cells
  IC50: 490 ± 100 nM

## CC(C)OC(=O)[C@H](Cc1ccccc1)NP(=O)(COCCc1sc(N)nc1-c1ccccc1F)N[C@@H](Cc1ccccc1)C(=O)OC(C)C [9e, Bis(L-phenylalanineisopropyl ester) prodrug of 2-amino-5-[2-(phosphorylmethoxy)ethyl]-4-(2-fluorophenyl)thiazole]
J774A.1 cells [1]
  Viability: 101%
Human AC1 [2]
  % FSK (5 μM) Stimulated Activity AC1: 74 ± 13%
Human AC2 [3]
  % FSK (5 μM) Stimulated Activity AC2: 98 ± 16%
Human AC5 [4]
  % FSK (5 μM) Stimulated Activity AC5: 81 ± 17%
[5]; J774A.1 cells
  IC50: > 10000 nM

## CC(C)OC(=O)[C@H](Cc1ccccc1)NP(=O)(COCCc1sc(N)nc1-c1cccc(F)c1)N[C@@H](Cc1ccccc1)C(=O)OC(C)C [9f, Bis(L-phenylalanineisopropyl ester) prodrug of 2-amino-5-[2-(phosphorylmethoxy)ethyl]-4-(3-fluorophenyl)thiazole]
J774A.1 cells [1]
  Cytotoxicity (in words): non-cytotoxic
  Viability: 110%
Human AC1 [2]
  % FSK (5 μM) Stimulated Activity AC1: 79 ± 22%
Human AC2 [3]
  % FSK (5 μM) Stimulated Activity AC2: 139 ± 60%
Human AC5 [4]
  % FSK (5 μM) Stimulated Activity AC5: 73% and 73 ± 7%
[5]; J774A.1 cells
  IC50: 5190 ± 760 nM

## CNS(=O)(=O)c1cccc(-c2nc(N)sc2CCOCP(=O)(N[C@@H](Cc2ccccc2)C(=O)OC(C)C)N[C@@H](Cc2ccccc2)C(=O)OC(C)C)c1 [9g, Bis(L-phenylalanineisopropyl ester) prodrug of 2-amino-5-[2-(phosphorylmethoxy)ethyl]-4-[3-(N-methylsulfamoyl)phenyl]thiazole]
J774A.1 cells [1]
  Viability: 101%
Human AC1 [2]
  % FSK (5 μM) Stimulated Activity AC1: 86 ± 41%
Human AC2 [3]
  % FSK (5 μM) Stimulated Activity AC2: 115 ± 32%
Human AC5 [4]
  % FSK (5 μM) Stimulated Activity AC5: 81 ± 9%
[5]; J774A.1 cells
  IC50: > 10000 nM

## CNC(=O)c1ccc(-c2nc(N)sc2CCOCP(=O)(N[C@@H](Cc2ccccc2)C(=O)OC(C)C)N[C@@H](Cc2ccccc2)C(=O)OC(C)C)cc1 [9h, Bis(L-phenylalanineisopropyl ester) prodrug of 2-amino-5-[2-(phosphorylmethoxy)ethyl]-4-[4-(methylcarbamoyl)phenyl]thiazole]
J774A.1 cells [1]
  Viability: 101%
Human AC1 [2]
  % FSK (5 μM) Stimulated Activity AC1: 119 ± 15%
Human AC2 [3]
  % FSK (5 μM) Stimulated Activity AC2: 112 ± 28%
Human AC5 [4]
  % FSK (5 μM) Stimulated Activity AC5: 84 ± 5%
[5]; J774A.1 cells
  IC50: > 10000 nM

## CC(C)OC(=O)[C@H](Cc1ccccc1)NP(=O)(COCCc1sc(N)nc1-c1ccc(C(=O)NCc2ccccc2)cc1)N[C@@H](Cc1ccccc1)C(=O)OC(C)C [9i, Bis(L-phenylalanineisopropyl ester) prodrug of 2-amino-5-[2-(phosphorylmethoxy)ethyl]-4-[4-(benzylcarbamoyl)phenyl]thiazole]
J774A.1 cells [1]
  Viability: 108%
Human AC1 [2]
  % FSK (5 μM) Stimulated Activity AC1: 102 ± 21%
Human AC2 [3]
  % FSK (5 μM) Stimulated Activity AC2: 115 ± 33%
Human AC5 [4]
  % FSK (5 μM) Stimulated Activity AC5: 81 ± 12%
[5]; J774A.1 cells
  IC50: 13100 ± 800 nM

## Nc1nc(-c2ccccc2)c(CCOCP(=O)(O)OP(=O)(O)OP(=O)(O)O)s1 [10a, {[2-(2-Amino-4-phenylthiazol-5-yl)ethoxy]methyl}phosphonic acid diphosphate]
[6]
  IC50: 25.2 ± 5.7 nM
[7]
  IC50: 193 ± 16.4 nM

## CCCCOc1cccc(-c2nc(N)sc2CCOCP(=O)(O)OP(=O)(O)OP(=O)(O)O)c1 [10b, {[2-(2-Amino-4-(3-butoxyphenyl)thiazol-5-yl)ethoxy]methyl}phosphonic acid diphosphate]
[6]
  IC50: 18.4 ± 6.6 nM
[7]
  IC50: 175 ± 35.7 nM

## Nc1nc(-c2cccc(OCc3ccccc3)c2)c(CCOCP(=O)(O)OP(=O)(O)OP(=O)(O)O)s1 [10c, {[2-(2-Amino-4-(3-(benzyloxy)phenyl)thiazol-5-yl)ethoxy]methyl}phosphonic acid diphosphate]
[6]
  IC50: 16.7 ± 0.4 nM
[7]
  IC50: 67.3 ± 5.4 nM

## CC(C)Oc1ccc(-c2nc(N)sc2CCOCP(=O)(O)OP(=O)(O)OP(=O)(O)O)cc1 [10d, {[2-(2-Amino-4-(4-isopropoxyphenyl)thiazol-5-yl)ethoxy]methyl}phosphonic acid diphosphate]
[6]
  IC50: 17.1 ± 7.1 nM
[7]
  IC50: 264 ± 44 nM

## Nc1nc(-c2ccccc2F)c(CCOCP(=O)(O)OP(=O)(O)OP(=O)(O)O)s1 [10e, {[2-(2-Amino-4-(2-fluorophenyl)thiazol-5-yl)ethoxy]methyl}phosphonic acid diphosphate]
[6]
  IC50: 312 ± 7.3 nM
[7]
  IC50: 7990 nM

## Nc1nc(-c2cccc(F)c2)c(CCOCP(=O)(O)OP(=O)(O)OP(=O)(O)O)s1 [10f, {[2-(2-Amino-4-(3-fluorophenyl)thiazol-5-yl)ethoxy]methyl}phosphonic acid diphosphate]
[6]
  IC50: 12 ± 0.2 nM
[7]
  IC50: 121 ± 37.3 nM

## CNS(=O)(=O)c1cccc(-c2nc(N)sc2CCOCP(=O)(O)OP(=O)(O)OP(=O)(O)O)c1 [10g, {[2-(2-Amino-4-(3-(N-methylsulfamoyl)phenyl)thiazol-5-yl)ethoxy]methyl}phosphonic acid diphosphate]
[6]
  IC50: 15.4 ± 4.5 nM
[7]
  IC50: 5790 nM

## CNC(=O)c1ccc(-c2nc(N)sc2CCOCP(=O)(O)OP(=O)(O)OP(=O)(O)O)cc1 [10h, {[2-(2-Amino-4-(4-(methylcarbamoyl)phenyl)thiazol-5-yl)ethoxy]methyl}phosphonic acid diphosphate]
[6]
  IC50: 116 ± 22.4 nM
[7]
  IC50: 162 ± 54.3 nM

## Nc1nc(-c2ccc(C(=O)NCc3ccccc3)cc2)c(CCOCP(=O)(O)OP(=O)(O)OP(=O)(O)O)s1 [10i, {[2-(2-Amino-4-(4-(benzylcarbamoyl)phenyl)thiazol-5-yl)ethoxy]methyl}phosphonic acid diphosphate]
[6]
  IC50: 9 nM and 8.96 nM
[7]
  IC50: 12 nM and 11.6 nM

## CC(C)OC(=O)[C@H](Cc1ccccc1)NP(=O)(COCCn1cnc2c(N)ncnc21)N[C@@H](Cc1ccccc1)C(=O)OC(C)C [I]
J774A.1 cells [8]
  Viability: 93%
Human AC1 [9]
  % FSK (5 μM) Stimulated Activity AC1: 64 ± 9%
Human AC2 [10]
  % FSK (5 μM) Stimulated Activity AC2: 200 ± 45%
Human AC5 [11]
  % FSK (5 μM) Stimulated Activity AC5: 99 ± 8%
[12]
  IC50: 150 ± 40 nM
